We go through one molecule from patent US11344534B2, “Cholinergic agonism for the treatment of pancreatic cancer” (priority 2017, dated 2022).

“Also recorded” adds a separate entry of the source. Some results are limits rather than exact numbers.

Test [1] concerns human Panc1 cells. Description: Western blot of EGFR/MAPK and PI3K/AKT signaling, Panc1. The test is classed as cell-based. In general terms: A western blot detects proteins with antibodies after separation by electrophoresis.
Experimental: To analyze EGFR and the MAPK and PI3K-Akt pathway in human and murine pancreatic cancer cell lines, cells were grown in 12-well plate to around ˜70% confluent, changed the 0.5% FBS medium, added the drugs respectively and incubated them for further 72 hrs incubation in a typical CO2 incubator (˜20% O2). After removing the medium, cells were washed twice with PBS, and protein extraction was performed on ice using RIPA buffer with protease inhibitor (Complete) (Roche) cocktail and phosphatase inhibitor (phosSTOP) (Roche). Protein samples were subsequently separated in 10% Bis-Tris Gel NuPAGE® electrophoresis using MES SDS Running Buffer (Invitrogen, CA, USA). After transfer to nitrocellulose, membranes were blocked with 5% BSA, and samples were probed with the following primary antibodies: p-EGFR (Cell Signaling), EGFR (Cell Signaling), p-BRAF (Cell Signaling), BRAF (Cell Signaling), p-ERK1/2 (phosphorylated p44/42 MAPK) (Thr202/Tyr204) (Cell Signaling), ERK1/2 (p44/42 MAPK) (Thr202/Tyr204) (Cell Signaling), p-PI3K (Cell Signaling), PI3K (Cell Signaling), p-Akt (Cell Signaling), Akt (Cell Signaling), and β-actin (Cell Signaling) followed by horseradish peroxidase-coupled secondary antibody. Immunoreactive bands were visualized using 5-bromo-4-chloro-3-indolyl phosphate/nitro blue tetrazolium and bands were quantified with ImageJ.
To analyze EGFR, MAPK and PI3K-AKT pathways in human and murine pancreatic cancer cell lines, cells were grown in 12-well culture plates to ˜70% confluency. The medium was then changed to 0.5% FBS medium, the respective drugs were added, and they were incubated for an additional 72 hours in a CO2 incubator (˜5% CO2). After removing the medium, cells were washed twice with PBS, and protein extraction was performed on ice using RIPA buffer with protease inhibitor (Complete, Roche) cocktail and a phosphatase inhibitor (phosSTOP, Roche). Protein samples were subsequently separated by 10% Bis-Tris Gel NuPAGE® electrophoresis using MES SDS Running Buffer (Invitrogen, CA, USA). After transfer to nitrocellulose, membranes were blocked with 5% BSA, and samples were probed with the following primary antibodies: p-EGFR (Cell Signaling), EGFR (Cell Signaling), p-BRAF (Cell Signaling), BRAF (Cell Signaling), p-ERK1/2 (phosphorylated p44/42 MAPK) (Thr202/Tyr204) (Cell Signaling), ERK1/2 (p44/42 MAPK) (Thr202/Tyr204) (Cell Signaling), p-PI3K (Cell Signaling), PI3K (Cell Signaling), p-AKT (Cell Signaling), AKT (Cell Signaling), and β-actin (Cell Signaling) followed by horseradish peroxidase-coupled secondary antibody. Immunoreactive bands were visualized using 5-bromo-4-chloro-3-indolyl phosphate/nitro blue tetrazolium and bands were quantified with ImageJ.
Test [2] relates to CD44+CD24+EpCAM+ population of Panc1 and BxPC3 cells. Description: Flow cytometry (FACS) of cancer stem cell population. Type of test: cell-based, human. The note with it: for CD44+CD24+EpCAM+ cancer stem cell population (FACS): human pancreatic cancer cells, 72 hours pilocarpine. The protocol: Panc-1 cells were grown in 6-well plate to around ˜70% confluent, changed the 0.5% FBS medium, added the drugs respectively and incubated them for further 72 hrs incubation in a typical CO2 incubator (˜20% O2). Afterwards, cells were kept on ice in blocking solution (PBS pH 7.2 containing ? 3% bovine serum albumin, 2 mM EDTA) for 20 minutes. Cells were then stained with a PE-conjugated antibody against CD24, a FITC-conjugated antibody against CD44, and an APC-conjugated antibody against CD326 (1:100—in blocking solution) on ice for 30 minutes. The cells were then washed, reconstituted in sorting buffer (PBS pH 7.2 containing 0.5% bovine serum albumin, 2 mM EDTA)+DAPI and analyzed using a BD FACSAria II.
Panc1 and BxPC3 cells were grown in 6-well plate to ˜70% confluency, the media was changed to 0.5% FBS medium, the respective drugs were added, and they were incubated for an additional 72 hrs in a typical CO2 incubator (˜5% CO2). Subsequently, cells were kept on ice in blocking solution (PBS pH 7.2 containing 3% bovine serum albumin, 2 mM EDTA) for 20 minutes. Cells were then stained with a PE-conjugated antibody against CD24, a FITC-conjugated antibody against CD44, and an APC-conjugated antibody against CD326 (1:100 in blocking solution) on ice for 30 minutes. The cells were then washed, reconstituted in sorting buffer (PBS pH 7.2 containing 0.5% bovine serum albumin, 2 mM EDTA)+DAPI and analyzed using a BD FACSAria II.
(In general: In flow cytometry, cells or beads pass a laser one at a time.)

Test [3] concerns Panc1 cells. Description: Subcutaneous implantation of 25,000 pilocarpine-pretreated Panc1 cells into NOD/SCID mice. As to conditions: 25,000 Panc1 cells pretreated with pilocarpine for 72 hours vs untreated Panc1 cells. The test is classed as in vivo, mouse. As to the method:
To address the possible parasympathetic effects on sternness, human pancreatic cancer cells (Panc1 and BxPC3) were treated with pilocarpine.
To address the possible parasympathetic effects on stemness, human pancreatic cancer cells (Panc1 and BxPC3) were treated with pilocarpine.
LSL-Kras^+/LSL-G12D, LSL-Trp53^+/R172H, and Pdx1-Cre mice were bred by Dr. Kenneth P. Olive and co-workers. Chrm1KO mice (C57BL/6-Chrm1tm1 Stl/J, (M1RKO) mice^1 were purchased from the Jackson Laboratory. KC mice and KPC mice were crossed with M1RKO mice. In the vagotomy experiments, KC mice received pyloroplasty with or without vagotomy at 8 weeks, and some KC+VxPP mice were treated with bethanechol ([…] in drinking water) immediately after surgery and then sacrificed at 20 weeks. KPC mice in treatment studies were palpated weekly for tumors in the pancreas. Once a tumor was suspected, KPC mice were screened by VEVO 2100—Ultrasound Imaging System (FUJIFILM VisualSonics) for pancreatic cancer. KPC mice were treated with gemcitabine, given by i.p. injection 100 mg/kg biweekly, with or without bethanechol, when a tumor size of 3-5 mm was detected using ultrasound. Mice were sacrificed when the mice were moribund. NOD/SCID mice were implanted with Panc1 cells subcutaneously and sacrificed at 30 days after implantation. For liver metastatic experiments, WT type C57/B6 mice received a splenic injection of labeled Panc02 cells, followed by hemi-splenectomy. The mice were then divided into three groups. […] Mice were then sacrificed when moribund. At necropsy, hepatic metastases that could clearly be identified as tumor nodules on gross inspection were separated. All animal studies and procedures were approved by the IACUC committee at Columbia University. All mice were bred under specific pathogen free conditions. Comparisons were made with age- and sex-matched control animals.

Test [4] relates to Panc1 cells. Description: Soft agar assay, human cells. The test is classed as cell-based. As to conditions: human cancer cells (Panc1).
In test [5] the test system is Kras^+/LSL-G12D mutant spheres. Description: 3D Matrigel sphere culture of Kras mutant (Ad-Cre) pancreatic acinar cells. Type of test: cell-based, mouse. As to the method:
Cholinergic stimulation could in theory promote cancer indirectly through effects on stromal cells, or directly through effects on pancreatic epithelial cells. To determine whether cholinergic stimulation promoted tumor development in part through muscarinic receptors on cancer cells, the sphere forming capacity of K-Ras^+/LSL-G12D mutant pancreatic acinar cells was assessed in a 3D Matrigel culture system, with or without muscarinic stimulation. K-Ras^+/LSL-G12D mutant spheres were generated from K-Ras^+/LSL-G12D pancreatic acinar cells by treatment with adenoviral delivered Cre (Ad-Cre).
3D cultures were performed as described previously (Wescott et al., 2009). Organoids were cultured for 5 days before analysis. Adenoviral delivered Cre (Ad-Cre) was added to the cultures and medium was changed after 12 hours. […] Sphere size and […] were analyzed using ImageJ software.
To determine whether cholinergic stimulation suppresses tumor development in part through specific muscarinic receptors on cancer cells, the sphere forming capacity of Kras^+/LSL-G12D pancreatic acinar cells in a 3D Matrigel culture system in the absence and presence of muscarinic agonists and antagonists was assessed. Kras^+/LSL-G12D mutant spheres were generated from Kras^+/LSL-G12D mice by delivery of an adenoviral Cre (Ad-Cre).
3D cultures were performed as described previously^18. Organoids were cultured for 5 days before analysis. Adenoviral delivered Cre (Ad-Cre) was added to the cultures and medium was changed after 12 hours. […] Sphere size and number were analyzed using ImageJ software.

Test [6] deals with primary human PDA organoids. Nature of the test: Primary human PDA organoids treated with pilocarpine. The note with it: dose-dependent, 100DM pilocarpine in FIG. 21B. The test is classed as cell-based. From the text:
To better understand the effect of growth inhibition by muscarinic agonists in human pancreatic epithelial cells, we generated primary human PDA organoids. Treatment with the broad muscarinic agonist, pilocarpine, reduced the number of viable organoids in a dose-dependent manner (FIGS. 21A-B). Treatment of human pancreatic cancer cells (Panc1) with pilocarpine reduced the size of the CD44+CD24+EpCAM+putative cancer stem cell population in a dose dependent manner (FIG. 21C) and inhibited tumor initiation in NOD/SCID mice (FIG. 21D). To better understand growth inhibition by muscarinic agonists, we analyzed changes in signaling molecules in animal models and PDA cell lines. […] Surprising, a number of signaling molecules were suppressed by both nonspecific and M1R-specific muscarinic agonists, including EGFR, B-RAF, ERK1/2, PI3K, and AKT kinase. These kinases all show reduced phosphorylation by muscarinic agonists, which was abrogated by treatment with muscarinic antagonists. Finally, we analyzed Panc-1 cells following pilocarpine treatment (1 mM, 72 hrs) using RNAseq, and noted that many of the genes suppressed by pilocarpine included EGFR and PI3K^17.

Test [7] deals with Chrm1. Nature of the test: qRT-PCR of muscarinic receptor expression, murine PDAC cell lines. Type of test: cell-based, mouse. As to conditions: murine PDAC cell lines (Panc02 and K8282), compared to control. Background: In qPCR the cycle at which signal appears reflects the starting amount.
Where [8] appears, read: day 5, pilocarpine 1 mM, scopolamine 10 μM, McN-34A 50 μM, pirenzepine 50 μM, vs controls.

Consider `CC[C@@H]1C(=O)OC[C@@H]1Cc1cncn1C` [pilocarpine, (3S,4R)-3-ethyl-4-[(3-methylimidazol-4-yl)methyl]oxolan-2-one], for which the “phosphorylation of EGFR, BRAF, ERK1/2, PI3K and AKT kinases (western blot)” value in test [1] (72 hours) is reported as “significantly less phosphorylated”. Moreover, the “ratios of p-EGFR/EGFR, p-BRAF/BRAF, p-ERK/ERK, p-PI3K/PI3K and p-AKT/AKT (densitometry)” value in test [1] (single agent alone) is “significantly decreased”. Besides, the “CD44+CD24+EpCAM+ cancer stem cell population (FACS)” value in test [2] was “marked suppression; also recorded: reduced; also recorded: Dose dependent decrease”. The “CD44+CD24+EpCAM+ cancer stem cell population (FACS)” value in test [2] (listed as Pilocarpine) was “remarkable suppression”. For the same molecule, the “suppression of CD44+CD24+EpCAM+ cancer stem cells” value in test [2] (pilocarpine at doses of 100-500 rμM, preliminary studies) was greater than 50%. In test [3], the “tumor incidence / tumor initiation in NOD/SCID mice” value was “significant reduction; also recorded: inhibited” and the “tumor volume / size in NOD/SCID mice” value is “significant reduction”. Also, in test [3] (listed as Pilocarpine), the “tumor incidence / tumor initiation in NOD/SCID mice” value was “fewer” and the “tumor volume / size in NOD/SCID mice” value is recorded as “smaller”. Further, the “colonies / sphere formation in soft agar” value in test [4] is “significantly fewer”. In addition, in test [5] (setting [8]), the number of spheres entry is listed as “significantly fewer; also recorded: reduced” and the size of spheres entry is on record as “smaller”. In test [5] (oncogenic K-Ras allele activated by adeno-Cre virus), the “sphere formation and growth of Kras mutant spheres” value was “significant inhibitory effect; also recorded: decrease; also recorded: suppresses”. The “number of viable organoids” value in test [6] was “reduced”. The Chrm1 expression result in test [7] is “decreased; also recorded: lower”.
